Reference: patent publication US8546440B2, “Substituted bicyclic imidazole derivatives as gamma secretase modulators” (Janssen Pharmaceuticals, Inc., priority 2008, dated 2013)

Columns and labels:
Aβtotal = experiment: Screening for γ-secretase-modulating activity, Method 2: Aβtotal Alphalisa in supernatant of SKNBE2 cells carrying APP 695 wild type (Table 12c); assay type: cell-based; settings: Method 2, Table 12c, incubated overnight
Procedure, shortened: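 SKNBE2 cells expressing wild-type APP695, 10^4 cells/well, exposed to compound overnight at 37 °C; secreted Aβ42 and Aβtotal in supernatant measured by AlphaLISA sandwich immunoassays (Aβ42: C-terminal/N-terminal antibodies; Aβtotal: N-terminal/4G8). IC50 from 4-parameter fit of % untreated control.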

Aβ42 = experiment: Demonstration of in vivo efficacy: Aβ42 lowering in brain after single oral dose (Table 13); settings: mouse brain soluble fraction, ELISA, mean, compared to untreated animals
Text: To determine whether acute administration of an Aβ42 lowering agent would reduce Aβ42 levels in vivo, non-transgenic rodents, e.g. mice or rats were used. Alternatively, two to three month old Tg2576 mice expressing APP695 containing the “Swedish” variant can be used or a transgenic mouse model developed by Dr. Fred Van Leuven (K. U. Leuven, Belgium) and co-workers, with neuron-specific expression of a clinical mutant of the human amyloid precursor protein [V717I] (Moechars et al., 1999 J. Biol. Chem. 274, 6483). Young transgenic mice have high levels of Aβ in the brain but no detectable Aβ deposition. At approximately 6-8 months of age, the transgenic mice start to display spontaneous, progressive accumulation of β-amyloid (Aβ) in the brain, eventually resulting in amyloid plaques within the subiculum, hippocampus and cortex. Animals treated with the Aβ42 lowering agent were examined and compared to those untreated or treated with vehicle and brain levels of soluble Aβ42 and total Aβ would be quantitated by standard techniques, for example, using ELISA. Treatment periods varied from hours to days and were adjusted based on the results of the Aβ42 lowering once a time course of onset of effect could be established.
A typical protocol for measuring Aβ42 lowering in vivo is shown but it is only one of many variations that could be used to optimize the levels of detectable Aβ. For example, Aβ42 lowering compounds were formulated in 20% of Captisol® (a sulfobutyl ether of β-cyclodextrin) in water or 20% hydroxypropyl β cyclodextrin. The Aβ42 lowering agents were administered as a single oral dose or by any acceptable route of administration to overnight fasted animals. After four hours, the animals were sacrificed and Aβ42 levels were analysed.
Blood was collected by decapitation and exsanguinations in EDTA-treated collection tubes. Blood was centrifuged at 1900 g for 10 minutes at 4° C. and the plasma recovered and flash frozen for later analysis. The brain was removed from the cranium and hindbrain. The cerebellum was removed and the left and right hemisphere were separated. The left hemisphere was stored at −18° C. for quantitative analysis of test compound levels. The right hemisphere was rinsed with phosphate-buffered saline (PBS) buffer and immediately frozen on dry ice and stored at −80° C. until homogenization for biochemical assays.
Mouse brains were resuspended in 10 volumes of 0.4% DEA (diethylamine)/50 mM NaCl pH 10 (for non-transgenic animals) or 0.1% 3-[3-cholamidopropyl)-dimethyl-ammonio]-1-propanesulfonate (CHAPS) in tris buffered saline (TBS) (for transgenic animals) containing protease inhibitors (Roche-11873580001 or 04693159001) per gram of tissue, e.g. for 0.158 g brain, add 1.58 ml of 0.4% DEA. All samples were sonicated for 30 seconds on ice at 20% power output (pulse mode). Homogenates were centrifuged at 221.300×g for 50 min. The resulting high speed supernatants were then transferred to fresh tubes and were optionally further purified before the next step. A portion of the supernatant was neutralized with 10% 0.5 M Tris-HCl and this was used to quantify Aβtotal.
The obtained supernatants were purified with Water Oasis HLB reverse phase columns (Waters Corp., Milford, Mass.) to remove non-specific immunoreactive material from the brain lysates prior subsequent Aβ detection. Using a vacuum manifold, all solutions were passed through the columns at a rate of approximately 1 ml per minute, so the vacuum pressure was adjusted accordingly throughout the procedure. Columns were preconditioned with 1 ml of 100% MeOH, before equilibration with 1 ml of H2O. Non-neutralized brain lysates were loaded onto the columns. The loaded samples were then washed twice with the first wash performed with 1 ml of 5% MeOH, and the second wash with 1 ml of 30% MeOH. Finally, the Aβ was eluted from the columns and into 100×30 mm glass tubes, with a solution of 90% MeOH with 2% NH4OH. […]

IC50 (Aβtotal; Homo sapiens) [µM]	IC50 (Aβtotal) [µM]	SMILES	Aβ42 (% Ctrl)_Mean (Aβ42) [% Ctrl]
7.41	–	COc1cc(Nc2cccn3cc(-c4ccc(F)cc4)nc23)ccc1-n1cnc(C)c1 [Compound 1]	65
–	–	COc1cc(Nc2cccn3c(Cl)c(-c4ccc(F)cc4)nc23)ccc1-n1cnc(C)c1 [Compound 2]	100
> 10	–	COc1cc(Nc2cccn3cc(C4CCOCC4)nc23)ccc1-n1cnc(C)c1 [Compound 4]	93
–	–	COc1cc(Nc2cccn3c(C)c(-c4ccccc4)nc23)ccc1-n1cnc(C)c1 [Compound 5]	66
5.5	–	COc1cc(Nc2cccn3c(C)c(-c4ccccc4Cl)nc23)ccc1-n1cnc(C)c1 [Compound 15]	62
–	–	COc1cc(Nc2cccn3c(C)c(-c4c(F)cccc4F)nc23)ccc1-n1cnc(C)c1 [Compound 27]	59
7.08	–	COc1cc(Nc2cccn3c(C)c(-c4ccccc4C(F)(F)F)nc23)ccc1-n1cnc(C)c1 [Compound 29]	56
5.75	–	COc1cccc(-c2cn3cccc(Nc4ccc(-n5cnc(C)c5)c(OC)c4)c3n2)c1 [Compound 33]	80
> 10	–	COc1cc(Nc2cccn3cc(C)nc23)ccc1-n1cnc(C)c1 [Compound 50]	67
> 3.02	–	Cc1ncn(-c2ccc(Nc3cccn4cc(-c5ccccc5C)nc34)cc2)n1 [Compound 71]	91
–	5.89	COc1nc(Nc2cccn3c(C)c(-c4ccccc4C(F)(F)F)nc23)ccc1-n1cnc(C)c1 [Compound 138]	65
